Measured values: PMC7531004, “Discovery of gramicidin A analogues with altered activities by multidimensional screening of a one-bead-one-compound library” (Nature Communications, 2020)
Where a SMILES comes first, the peptide text is derived from it. [ ]: non-standard residue; d: D form. The star is where a group is joined. NHCH2CH2OH = OCCN*; For = O=C*

Key:
[1] = H+/Na+ transport assay of bead-derived peptides (one-point); assay type: biochemical; design: key: relative activity; mean of two control wells = 1.00; settings: bead-derived peptide solution, EYPC/EYPG LUVs;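 note: relative to parent gramicidin A activity set to 1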
Outline: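 H+/Na+ transport is monitored through pyranine fluorescence in freshly extruded LUVs after a 30-min room-temperature vortex with each library peptide at a single concentration. Signals are normalized to detergent (Triton X-100) and untreated controls.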

[2] = cell viability/%
Outline: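 Peptide stocks diluted 250× in growth medium; P388 cells 1 × 10^4 cells/mL final; 37 °C, 5% CO2, 92 h. WST-1 + 1-methoxy PMS, 4 h, A415. Output: % viability.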

[3] = tested on: Streptococcus pyogenes SSI-9; assay: Antibacterial activity assay of bead-derived peptides (three concentrations); assay type: cell-based; design: key: +++: inhibition by the 640-fold diluted peptide solution; ++: inhibition by the 160-fold diluted solution; +: inhibition by the 40-fold diluted solution; -: no inhibition; settings: S. pyogenes, bead-derived peptide solution, three concentrations
Outline: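 First, each peptide stock was diluted 4- and 16-fold in DMSO; next, the three solutions were mixed with S. pyogenes SSI-9 suspension (2 × 10^5 CFU) in cation-adjusted Mueller Hinton Broth plus 5% laked horse blood; finally, plates stood 18 h at 37 °C before checking for grown-cell precipitation.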

SMILES | H+/Na+ transport activity normalized against the value of 1 (1.00) [1] | viability [2] | antibacterial activity [3]
CC(C)C[C@@H](NC(=O)[C@H](C)NC(=O)[C@H](NC(=O)[C@H](C)NC(=O)CNC(=O)[C@@H](NC=O)C(C)C)C(C)C)C(=O)N[C@H](C(=O)N[C@@H](C(=O)N[C@@H](Cc1c[nH]c2ccccc12)C(=O)N[C@@H](C(=O)N[C@@H](Cc1c[nH]c2ccccc12)C(=O)N[C@@H](C(=O)N[C@@H](Cc1c[nH]c2ccccc12)C(=O)N[C@H](CC(C)C)C(=O)N[C@@H](Cc1c[nH]c2ccccc12)C(=O)NCCO)C(C)C)C(C)C)C(C)C)C(C)C [compound 437] (For-VGA[dV]A[dL]V[dV]W[dV]W[dV]W[dL]W-NHCH2CH2OH) | 1.11 | 100% | +
CC(C)C[C@@H](NC(=O)[C@H](Cc1c[nH]c2ccccc12)NC(=O)[C@@H](CC(C)C)NC(=O)[C@@H](NC(=O)[C@H](NC(=O)[C@H](C)NC(=O)[C@H](NC(=O)[C@H](C)NC(=O)CNC(=O)[C@@H](NC=O)C(C)C)C(C)C)C(C)C)C(C)C)C(=O)N[C@@H](Cc1c[nH]c2ccccc12)C(=O)N[C@H](CC(C)C)C(=O)N[C@@H](Cc1c[nH]c2ccccc12)C(=O)N[C@@H](C(=O)N[C@@H](Cc1c[nH]c2ccccc12)C(=O)NCCO)C(C)C [compound 511] (For-VGA[dV]A[dV]V[dL]W[dL]W[dL]W[dV]W-NHCH2CH2OH) | 1.01 | 1.8% | ++
CC(C)C[C@@H](NC(=O)[C@H](Cc1c[nH]c2ccccc12)NC(=O)[C@H](NC(=O)[C@H](Cc1c[nH]c2ccccc12)NC(=O)[C@@H](CC(C)C)NC(=O)[C@H](Cc1c[nH]c2ccccc12)NC(=O)[C@H](NC(=O)[C@@H](NC(=O)[C@H](NC(=O)[C@H](C)NC(=O)[C@H](NC(=O)[C@H](C)NC(=O)CNC(=O)[C@@H](NC=O)C(C)C)C(C)C)C(C)C)C(C)C)C(C)C)[C@H](C)O)C(=O)N[C@@H](Cc1c[nH]c2ccccc12)C(=O)NCCO [compound 521] (For-VGA[dV]A[dV]V[dV]W[dL]W[dT]W[dL]W-NHCH2CH2OH) | 1.05 | 100% | +
CC(C)C[C@@H](NC(=O)[C@H](C)NC(=O)[C@H](NC(=O)[C@H](C)NC(=O)CNC(=O)[C@@H](NC=O)C(C)C)C(C)C)C(=O)N[C@H](C(=O)N[C@H](CC(C)C)C(=O)N[C@@H](Cc1c[nH]c2ccccc12)C(=O)N[C@H](CC(C)C)C(=O)N[C@@H](Cc1c[nH]c2ccccc12)C(=O)N[C@H](CC(C)C)C(=O)N[C@@H](Cc1c[nH]c2ccccc12)C(=O)N[C@H](CC(C)C)C(=O)N[C@@H](Cc1c[nH]c2ccccc12)C(=O)NCCO)C(C)C [compound 527] (For-VGA[dV]A[dL]V[dL]W[dL]W[dL]W[dL]W-NHCH2CH2OH) | 1.16 | 5.9% | ++
CC(C)[C@H](NC=O)C(=O)NCC(=O)N[C@@H](C)C(=O)N[C@@H](C(=O)N[C@@H](C)C(=O)N[C@@H](C(=O)N[C@H](C(=O)N[C@@H](C(=O)N[C@@H](Cc1c[nH]c2ccccc12)C(=O)N[C@@H](C(=O)N[C@@H](Cc1c[nH]c2ccccc12)C(=O)N[C@@H](C(=O)N[C@@H](Cc1c[nH]c2ccccc12)C(=O)N[C@@H](C(=O)N[C@@H](Cc1c[nH]c2ccccc12)C(=O)NCCO)C(C)C)C(C)C)[C@H](C)O)C(C)C)C(C)C)C(C)C)C(C)C [compound 532] (For-VGA[dV]A[dV]V[dV]W[dT]W[dV]W[dV]W-NHCH2CH2OH) | 1.03 | 100% | -
CNC(=O)C[C@@H](NC(=O)[C@@H](NC(=O)[C@@H](CC(C)C)NC(=O)[C@H](C)NC(=O)[C@H](NC(=O)[C@H](C)NC(=O)CNC(=O)[C@@H](NC=O)C(C)C)C(C)C)C(C)C)C(=O)N[C@@H](Cc1c[nH]c2ccccc12)C(=O)N[C@@H](C(=O)N[C@@H](Cc1c[nH]c2ccccc12)C(=O)N[C@H](CC(C)C)C(=O)N[C@@H](Cc1c[nH]c2ccccc12)C(=O)N[C@H](CC(C)C)C(=O)N[C@@H](Cc1c[nH]c2ccccc12)C(=O)NCCO)C(C)C [compound 603] (For-VGA[dV]A[dL]V[dD](NHMe)W[dV]W[dL]W[dL]W-NHCH2CH2OH) | 1.10 | 100% | -
CC(C)C[C@@H](NC(=O)[C@H](C)NC(=O)CNC(=O)[C@@H](NC=O)C(C)C)C(=O)N[C@@H](C)C(=O)N[C@@H](C(=O)N[C@H](C(=O)N[C@H](CC(C)C)C(=O)N[C@@H](Cc1c[nH]c2ccccc12)C(=O)N[C@@H](C(=O)N[C@@H](Cc1c[nH]c2ccccc12)C(=O)N[C@H](CC(C)C)C(=O)N[C@@H](Cc1c[nH]c2ccccc12)C(=O)N[C@H](CC(C)C)C(=O)N[C@@H](Cc1c[nH]c2ccccc12)C(=O)NCCO)C(C)C)C(C)C)[C@H](C)O [compound 611] (For-VGA[dL]A[dT]V[dL]W[dV]W[dL]W[dL]W-NHCH2CH2OH) | 1.05 | 100% | -
CC(C)C[C@@H](NC(=O)[C@H](Cc1c[nH]c2ccccc12)NC(=O)[C@H](NC(=O)[C@@H](NC(=O)[C@H](NC(=O)[C@H](C)NC(=O)[C@H](NC(=O)[C@H](C)NC(=O)CNC(=O)[C@@H](NC=O)C(C)C)[C@H](C)O)C(C)C)C(C)C)C(C)C)C(=O)N[C@@H](Cc1c[nH]c2ccccc12)C(=O)N[C@@H](C(=O)N[C@@H](Cc1c[nH]c2ccccc12)C(=O)N[C@@H](C(=O)N[C@@H](Cc1c[nH]c2ccccc12)C(=O)NCCO)C(C)C)C(C)C [compound 629] (For-VGA[dT]A[dV]V[dV]W[dL]W[dV]W[dV]W-NHCH2CH2OH) | 1.12 | 100% | -
CC(C)C[C@@H](NC(=O)[C@H](C)NC(=O)CNC(=O)[C@@H](NC=O)C(C)C)C(=O)N[C@@H](C)C(=O)N[C@@H](C(=O)N[C@H](C(=O)N[C@@H](C(=O)N[C@@H](Cc1c[nH]c2ccccc12)C(=O)N[C@@H](C(=O)N[C@@H](Cc1c[nH]c2ccccc12)C(=O)N[C@@H](C(=O)N[C@@H](Cc1c[nH]c2ccccc12)C(=O)N[C@@H](C(=O)N[C@@H](Cc1c[nH]c2ccccc12)C(=O)NCCO)C(C)C)C(C)C)C(C)C)C(C)C)C(C)C)C(C)C [compound 725] (For-VGA[dL]A[dV]V[dV]W[dV]W[dV]W[dV]W-NHCH2CH2OH) | 1.10 | 100% | +
CC(C)C[C@@H](NC(=O)[C@H](C)NC(=O)CNC(=O)[C@@H](NC=O)C(C)C)C(=O)N[C@@H](C)C(=O)N[C@@H](C(=O)N[C@H](C(=O)N[C@@H](C(=O)N[C@@H](Cc1c[nH]c2ccccc12)C(=O)N[C@@H](C(=O)N[C@@H](Cc1c[nH]c2ccccc12)C(=O)N[C@@H](C(=O)N[C@@H](Cc1c[nH]c2ccccc12)C(=O)N[C@@H](C(=O)N[C@@H](Cc1c[nH]c2ccccc12)C(=O)NCCO)[C@H](C)O)C(C)C)C(C)C)C(C)C)C(C)C)C(C)C [compound 762] (For-VGA[dL]A[dV]V[dV]W[dV]W[dV]W[dT]W-NHCH2CH2OH) | 1.01 | 96.8% | -
CC(C)C[C@@H](NC(=O)[C@H](C)NC(=O)CNC(=O)[C@@H](NC=O)C(C)C)C(=O)N[C@@H](C)C(=O)N[C@H](CC(C)C)C(=O)N[C@H](C(=O)N[C@H](CC(C)C)C(=O)N[C@@H](Cc1c[nH]c2ccccc12)C(=O)N[C@@H](C(=O)N[C@@H](Cc1c[nH]c2ccccc12)C(=O)N[C@H](CC(C)C)C(=O)N[C@@H](Cc1c[nH]c2ccccc12)C(=O)N[C@@H](C(=O)N[C@@H](Cc1c[nH]c2ccccc12)C(=O)NCCO)[C@H](C)O)C(C)C)C(C)C [compound 770] (For-VGA[dL]A[dL]V[dL]W[dV]W[dL]W[dT]W-NHCH2CH2OH) | 1.11 | 100% | -
CC(C)C[C@@H](NC(=O)[C@H](C)NC(=O)[C@H](NC(=O)[C@H](C)NC(=O)CNC(=O)[C@@H](NC=O)C(C)C)[C@H](C)O)C(=O)N[C@H](C(=O)N[C@H](CC(C)C)C(=O)N[C@@H](Cc1c[nH]c2ccccc12)C(=O)N[C@H](CC(C)C)C(=O)N[C@@H](Cc1c[nH]c2ccccc12)C(=O)N[C@@H](C(=O)N[C@@H](Cc1c[nH]c2ccccc12)C(=O)N[C@H](CC(C)C)C(=O)N[C@@H](Cc1c[nH]c2ccccc12)C(=O)NCCO)C(C)C)C(C)C [compound 789] (For-VGA[dT]A[dL]V[dL]W[dL]W[dV]W[dL]W-NHCH2CH2OH) | 1.08 | 100% | -
CC(C)C[C@@H](NC(=O)[C@@H](NC(=O)[C@H](NC(=O)[C@H](C)NC(=O)[C@H](NC(=O)[C@H](C)NC(=O)CNC(=O)[C@@H](NC=O)C(C)C)C(C)C)C(C)C)C(C)C)C(=O)N[C@@H](Cc1c[nH]c2ccccc12)C(=O)N[C@@H](C(=O)N[C@@H](Cc1c[nH]c2ccccc12)C(=O)N[C@@H](C(=O)N[C@@H](Cc1c[nH]c2ccccc12)C(=O)N[C@@H](C(=O)N[C@@H](Cc1c[nH]c2ccccc12)C(=O)NCCO)C(C)C)C(C)C)C(C)C [compound 885] (For-VGA[dV]A[dV]V[dL]W[dV]W[dV]W[dV]W-NHCH2CH2OH) | 1.03 | 93.4% | -
